The text below walks through data of publication PMC4723341, “Ribonuclease H/DNA Polymerase HIV-1 Reverse Transcriptase Dual Inhibitor: Mechanistic Studies on the Allosteric Mode of Action of Isatin-Based Compound RMNC6” (PLoS ONE, 2016).

The target of data set [1] is T1, HIV-1 RT-associated RDDP activity, wt RT (Human immunodeficiency virus type 1 group M subtype B, UniProt P04585).
T1 construct: The 1:1 ration between the p66/p51 subunits was also verified; made in house; host or cells: E. coli M15
The experiment in a line: biochemical. More on the design: species or system HIV-1 group M subtype B.

Data set [2] deals with T2, HIV-1 RT-associated RDDP activity, K103N RT (Human immunodeficiency virus type 1 group M subtype B, UniProt P04585, K690N).
T2 construct: The 1:1 ration between the p66/p51 subunits was also verified; made in house; host or cells: E. coli M15
The experiment in a line: RDDP activity assay, K103N RT. It counts as biochemical, HIV-1 group M subtype B.

In data set [3] the target is T3, HIV-1 RT-associated RDDP activity, Y181C RT (Human immunodeficiency virus type 1 group M subtype B, UniProt P04585, Y768C).
T3 construct: The 1:1 ration between the p66/p51 subunits was also verified; made in house; host or cells: E. coli M15
The experiment in a line: RDDP activity assay, Y181C RT. It counts as biochemical, HIV-1 group M subtype B.

Data set [4] addresses T4, HIV-1 RT-associated RDDP activity, Y188L RT (Human immunodeficiency virus type 1 group M subtype B, UniProt P04585, Y775L).
T4 construct: The 1:1 ration between the p66/p51 subunits was also verified; made in house; host or cells: E. coli M15
In words: RDDP activity assay, Y188L RT. In kind it is biochemical, HIV-1 group M subtype B.

Data set [5] has as its target T5, HIV-1 RT-associated RDDP activity, V108A RT (Human immunodeficiency virus type 1 group M subtype B, UniProt P04585, V695A).
T5 construct: The 1:1 ration between the p66/p51 subunits was also verified; made in house; host or cells: E. coli M15
The experiment in a line: biochemical. Further details: species or system HIV-1 group M subtype B.

The target in data set [6] is T6, HIV-1 RT-associated RDDP activity, P226A RT (Human immunodeficiency virus type 1 group M subtype B, UniProt P04585, P813A).
T6 construct: The 1:1 ration between the p66/p51 subunits was also verified; made in house; host or cells: E. coli M15
The experiment in a line: biochemical. Further details: species or system HIV-1 group M subtype B.

Data set [7] deals with T7, HIV-1 RT-associated RDDP activity, F227A RT (Human immunodeficiency virus type 1 group M subtype B, UniProt P04585, F814A).
T7 construct: The 1:1 ration between the p66/p51 subunits was also verified; made in house; host or cells: E. coli M15
The experiment in a line: biochemical. Further details: species or system HIV-1 group M subtype B.

Data set [8] deals with HIV-1 RT-associated RDDP activity, F227A RT. The experiment in a line: biochemical. To be noted: F227A RT. Further details: species or system HIV-1 group M subtype B.
For data set [9], the target named is T8, HIV-1 RT-associated RDDP activity, L228A RT (Human immunodeficiency virus type 1 group M subtype B, UniProt P04585, L815A).
T8 construct: The 1:1 ration between the p66/p51 subunits was also verified; made in house; host or cells: E. coli M15
In words: biochemical. More on the design: species or system HIV-1 group M subtype B.

Data set [10] deals with HIV-1 RT-associated RDDP activity, L228A RT. In words: biochemical. More on the design: species or system HIV-1 group M subtype B. To be noted: L228A RT.
The target of data set [11] is T9, HIV-1 RT-associated RDDP activity, W229A RT (Human immunodeficiency virus type 1 group M subtype B, UniProt P04585, W816A).
T9 construct: The 1:1 ration between the p66/p51 subunits was also verified; made in house; host or cells: E. coli M15
In words: biochemical. Further details: species or system HIV-1 group M subtype B.

Data set [12] has as its target T10, HIV-1 RT-associated RDDP activity, G231A RT (Human immunodeficiency virus type 1 group M subtype B, UniProt P04585, G818A).
T10 construct: The 1:1 ration between the p66/p51 subunits was also verified; made in house; host or cells: E. coli M15
In words: biochemical. More on the design: species or system HIV-1 group M subtype B.

In data set [13] the target is T11, HIV-1 RT-associated RDDP activity, A502F RT (Human immunodeficiency virus type 1 group M subtype B, UniProt P04585, A1089F).
T11 construct: The 1:1 ration between the p66/p51 subunits was also verified; made in house; host or cells: E. coli M15
The experiment in a line: biochemical. Further details: species or system HIV-1 group M subtype B.

For data set [14], the target named is T12, HIV-1 RT-associated RDDP activity, A508V RT (Human immunodeficiency virus type 1 group M subtype B, UniProt P04585, A1095V).
T12 construct: The 1:1 ration between the p66/p51 subunits was also verified; made in house; host or cells: E. coli M15
In words: biochemical. Further details: species or system HIV-1 group M subtype B.

Data set [15] has as its target T13, HIV-1 RT RNA-dependent DNA polymerase activity (Human immunodeficiency virus type 1 group M subtype B, UniProt P04585).
T13 construct: The 1:1 ration between the p66/p51 subunits was also verified; made in house; host or cells: E. coli M15
The experiment in a line: Yonetani-Theorell analysis of RMNC6 and EFV on RDDP function. In kind it is biochemical. The procedure:
RNA-dependent DNA polymerase (RDDP) activity was measured as described in 25 μL volume containing 60 mM Tris-HCl buffer pH 8.1, 8 mM MgCl2, 60 mM KCl, 13 mM DTT, 2.5 μM poly(A)-oligo(dT), 100 μM dTTP, increasing concentrations of inhibitors, whose dilution were made in water, and different amounts of enzymes according to a linear range of dose-response curve: 6 ng wt RT; 30 ng K103N RT; 12 ng V106ART; 19 ng V108A RT; 1.51.5 ng Y181C RT; 45 ng Y188A RT; 15 ng Y188L RT; 30 ng E224A RT; 15 ng P225A RT; 18 ng P226A RT; 23 ng F227A RT; 15 ng L228A RT; 30 ng W229A RT; 30 ng M230A RT; 15 ng G231A RT; 15 ng N474A RT; 15 ng Y501A RT; 15 ng A502F RT; 19 ng A508V RT; 38 ng HIV-1 group O RT. After enzyme addition, the reaction mixture was incubated for 30 min at 37°C and the stopped by addition of EDTA. Reaction products were detected by picogreen addition and measured with a multilabel counter plate reader Victor 3 (Perkin Elmer model 1420–051) equipped with filters for 502/523 nm (excitation/emission wavelength). The Yonetani-Theorell analysis was performed as described previously.

Data set [16] is described as follows: UV spectra in the absence and presence of magnesium (chelating potential). In kind it is physicochemical. To be noted: in the presence of 6 mM MgCl2. An excerpt:
Since the mode of action of previously identified dual RT inhibitors was not determined, we decided to investigate the mechanism of RT inhibition by RMNC6 in comparison with available RNase H inhibitors and NNRTIs. […] RNase H inhibitors such as vynologous ureas (VUs) are known to destabilize the RT heterodimer by binding to an allosteric pocket in the RNase H domain at the interface between p66 and p51 subunits.

Data set [17] has as its target DNA polymerase activity of HIV-1 group O RT and wild-type and mutant HIV-1 group M subtype B RTs. The experiment in a line: RDDP assays, HIV-1 group O RT and wild-type and mutant HIV-1 group M subtype B RTs together. To be noted: wild-type and mutant (K103N, Y181C, Y188L) group M subtype B RTs, read-out: IC50 RDDP, range over all enzymes. In kind it is biochemical.

With `N#Cc1ccc(-c2csc(NN=C3C(=O)Nc4ccccc43)n2)cc1` [RMNC6, (Z)-4-(2-(2-(2-oxoindolin-3-ylidene)hydrazinyl)thiazol-4-yl)benzonitrile], the concentration for half-maximal inhibition (IC50) in data set [1] is 9.8 ± 1.4 µM; in [2] it was 13.6 ± 1 µM; in data set [3], 5.4 ± 0.3 µM; in [4], 16.5 ± 3.7 µM; in [5], 33 ± 5.2 µM; in [6] it was 18.9 ± 0.7 µM. In addition, the IC50 in data set [7] was 15.2 ± 0.9 µM; in data set [9] it was 13.1 ± 1.9 µM; in [11], 15.4 ± 2.8 µM; in [12] it was 10.8 ± 2.4 µM; in data set [13] it was 17.1 ± 2.1 µM; in data set [14] it was 19.3 ± 2.8 µM. In addition, the IC50 in [17] was 5.4 to 20.1 µM. Moreover, the “Fold of increase of RDDP IC50 with respect to wt RT” value in [5] (V108A RT) is given as 3.4; in data set [6] (P226A RT) it was 1.9; in [8], 1.5; in [10], 1.3; in data set [11] (W229A RT) it was 1.6; in [12] (G231A RT) it was 1.1. Moreover, the figures for the “Fold of increase of RDDP IC50 with respect to wt RT” value in [13] (A502F RT) and in [14] (A508V RT) were 1.8 and 2.0, respectively. For the same compound, the “Mutual exclusivity of inhibition (Yonetani-Theorell, words)” value in data set [15] (RMNC6 combined with EFV (4, 8, 16 nM) on RDDP function) is on record as “not mutually exclusive”. For the same compound, the “Interaction constant α (Yonetani-Theorell)” value in data set [15] (combined effects of RMNC6 and EFV on RDDP function) was 1.2. In addition, the “Shift of maximum of absorbance (UV spectra)” value in data set [16] was “did not shift”.

Usually IC50 stands for the point on the concentration scale where inhibition reaches its midpoint.
